From patent US5028590A, “Derivatives of A54145 cyclic peptides” (priority 1988, dated 1991)

Columns and labels:
[1] = tested on: Staphylococcus epidermidis 222; test: Agar-dilution MIC, Staphylococcus epidermidis 222; type: cell-based
[2] = tested on: Staphylococcus aureus X400; test: Agar-dilution MIC, Staphylococcus aureus X400; type: cell-based
Method: (§1) The MIC's in Table IV were determined by conventional agar-dilution assays.

[3] = tested on: Streptococcus sp. group D X66; test: Agar-dilution MIC, Streptococcus sp. group D X66; type: cell-based
Method: as §1

[4] = tested on: Staphylococcus aureus V41; test: Agar-dilution MIC, Staphylococcus aureus V41; type: cell-based
Method: as §1

[5] = tested on: Staphylococcus aureus S13E; details: agar dilution
Method: as §1

[6] = tested on: Streptococcus pneumoniae Park 1; type: cell-based; details: agar dilution
Method: as §1

[7] = tested on: Staphylococcus epidermidis EPI1; type: cell-based; details: agar dilution
Method: as §1

[8] = tested on: Staphylococcus aureus X1.1; test: Agar-dilution MIC, Staphylococcus aureus X1.1; type: cell-based
Method: as §1

[9] = tested on: Streptococcus pyogenes C203; test: Agar-dilution MIC, Streptococcus pyogenes C203; type: cell-based
Method: as §1

[10] = tested on: Streptococcus sp. group D 2041; test: Agar-dilution MIC, Streptococcus sp. group D 2041; type: cell-based
Method: as §1

[11] = tested on: Streptococcus pyogenes; test: In vivo protection of experimentally infected mice (ED50); details: administered subcutaneously, doses given 1 and 4 hours postinfection
Method: The formula 1a compounds have shown in vivo antimicrobial activity against experimentally-induced infections in laboratory animals. When two doses of test compound were administered to mice experimentally infected with Streptococcus pyogenes or Staphylococcus aureus, the activity observed was measured as an ED50 value [effective dose in mg/kg to protect 50% of the test animals: see Warren Wick, et al., J. Bacteriol. 81, 233-235 (1961)].

[12] = Relative toxicity, median lethal dose in mice; type: in vivo; details: administered IP in mice
From the text: Table VI summarizes the relative toxicity of illustrative formula 1a compounds.
^a When administered IP in mice

Substance | MIC [1] | MIC [2] | MIC [3] | MIC [4] | MIC [5] | MIC [6] | MIC [7] | MIC [8] | MIC [9] | MIC [10] | ED50 vs. Streptococcus pyogenes [11] | Median Lethal Dose [12]
NTrp -(n-Tetradecanoyl)-A54145 Nucleus [Compound 26] | 0.5 µg/mL | 0.5 µg/mL | 2 µg/mL | 0.25 µg/mL | 0.25 µg/mL | 0.125 µg/mL | 0.5 µg/mL | 0.25 µg/mL | 0.06 µg/mL | 4 µg/mL | – | –
NTrp -(n-Decanoyl)-A54145F Nucleus [Compound 10] | 16 µg/mL | 16 µg/mL | 128 µg/mL | 16 µg/mL | 16 µg/mL | 32 µg/mL | 16 µg/mL | 16 µg/mL | 4 µg/mL | 128 µg/mL | 10.8 mg/kg × 2 | > 505 mg/kg
NTrp -(n-Undecanoyl)-A54145A Nucleus [Compound 2] | 2 µg/mL | 4 µg/mL | 16 µg/mL | 4 µg/mL | 4 µg/mL | 2 µg/mL | 2 µg/mL | 2 µg/mL | 0.5 µg/mL | 32 µg/mL | 1.65 mg/kg × 2 | > 520 mg/kg
NTrp -(n-Dodecanoyl)-A54145A Nucleus [Compound 4] | 1 µg/mL | 1 µg/mL | 4 µg/mL | 1 µg/mL | 2 µg/mL | 2 µg/mL | 1 µg/mL | 1 µg/mL | 0.125 µg/mL | 8 µg/mL | 1.15 mg/kg × 2 | 321 mg/kg
NTrp -(n-Nonanoyl)-A54154A Nucleus [Compound 6] | 16 µg/mL | 32 µg/mL | 128 µg/mL | 32 µg/mL | 32 µg/mL | 64 µg/mL | 16 µg/mL | 32 µg/mL | 4 µg/mL | – | 10.6 mg/kg × 2 | > 510 mg/kg
